We go through 119 sequences from the OligoGym collection.

One series concerns the target SRA1. The note with it: ASO.
The conditions of series [1]: ASO.

These antisense oligonucleotides have a phosphorothioate backbone; sugars and methylation of C are not fully specified. A value given as a limit tells only on which side of the number the result lay.
Also: test concentration or dose not given here.

Take AAAACAGACTCCTCTTTT: the remaining target (mRNA or protein) (fraction of control) with SRA1 was determined as 0.54. As to AAACTTGTGGGCTCCACG, the remaining target (mRNA or protein) (fraction of control) with SRA1 was 0.18. Sequence AACCGAGGATTATGAAGC returned a remaining target (mRNA or protein) (fraction of control) in the series with SRA1 of 0.57. As to CGCTCCGAAAAGAGACAG, the remaining target (mRNA or protein) (fraction of control) in series [1] was 0.87. In turn, CGGCTGAATCGAGCAGGT yielded a remaining target (mRNA or protein) (fraction of control) in series [1] of 0.93.

With CGTCGGGCTCCTTGCTGA, in series [1], the remaining target (mRNA or protein) (fraction of control) was no less than 1. In series [1], CGTGTTGATAGTTGCAGTTC gave a remaining target (mRNA or protein) (fraction of control) of no less than 1. On the same count and under the same terms, with CTACAGGTTGGCCACTCTGG the figure was 0.33. On the same count and under the same terms, with CTATGGAAATGCAGCTTAAG the figure was 0.87. On the same count and under the same terms, with CTCATAGCAGGCCCGGAT the figure was 0.44. Turning to CTCATCCGGATAGTACACAT, the remaining target (mRNA or protein) (fraction of control) in series [1] worked out at 0.64. In series [1], CTCCAGGATGTCGGTTTT yielded a remaining target (mRNA or protein) (fraction of control) of 0.77. The same measure, in the same setting: with CTCCGGCGCGCACGGGAACC the figure was 0.55; with CTCGATCGCTCCTCGTGC, no less than 1. Same read-out and setting: the figure for CTCGTAACAAACTGGTCGAA is 0.83; for CTGAAAGTGACAGTGTTT it is 0.79.

Regarding CTGCCTCTCTCTCCTCCG, the remaining target (mRNA or protein) (fraction of control) in series [1] was no less than 1.

Consider CTGCTGTATCATTTTCTT, for which the remaining target (mRNA or protein) (fraction of control) in series [1] was no less than 1. On the same count and under the same terms, with CTGCTTCTTCTGCTCCAA the figure was 0.57; with CTTAAGACATGACTGTTAAG, 0.89. The same measure, in the same setting: the figure for CTTCTTGCTGCCCTCGGG is no less than 1. Still for that read-out and setting: with CTTTACTTCGCCGTCCAC the figure was 0.59. For the sequence CTTTCAAAGGAGGGAAAC, in series [1], the remaining target (mRNA or protein) (fraction of control) is no less than 1.

In turn, CTTTGTTTCGGTTGCTGC had a remaining target (mRNA or protein) (fraction of control) in series [1] of 0.64. On to GACGTGCCTTTCTGCTAC, for which the remaining target (mRNA or protein) (fraction of control) in series [1] worked out at 0.72.

In series [1], GACTTCCTTGCCTGAAAC gave a remaining target (mRNA or protein) (fraction of control) of no less than 1. In series [1], GAGAGATGCCCACCCACC had a remaining target (mRNA or protein) (fraction of control) of no less than 1. Sequence GAGGCGCTGCGGAACTTGGC displayed a remaining target (mRNA or protein) (fraction of control) in series [1] of 0.5. On the same count and under the same terms, with GAGTTGGTAGCCTCCGTT the figure was no less than 1; with GATCTTGCAGACGGTAGCTG, 0.3.

In series [1], GATGAACCTCTTGGCTGC gave a remaining target (mRNA or protein) (fraction of control) of no less than 1. GATGACGGATGTGCTTTT came in with a remaining target (mRNA or protein) (fraction of control) in series [1] of 0.74.

GATGCGCTCCAGGTGGGA gave a remaining target (mRNA or protein) (fraction of control) in series [1] of 0.58. Same read-out and setting: the figure for GATGGGGGTGGTGGAGTGCA is 0.75.

GCACAGCCTGTCTTCAAA gave a remaining target (mRNA or protein) (fraction of control) in series [1] of no less than 1. Still for that read-out and setting: the figure for GCAGAGCCGGCTGAAGTG is 0.96; for GCATCTGCTTGATGAAGG it is no less than 1.

Sequence GCCCGCACGGAGCCCTGC showed a remaining target (mRNA or protein) (fraction of control) in series [1] of 0.81.

As to GCCCTTTGCTTTCCAGAG, in series [1], the remaining target (mRNA or protein) (fraction of control) was no less than 1.

In series [1], GCGCGTCCGGTGCTCCCA gave a remaining target (mRNA or protein) (fraction of control) of 0.75.

Turning to GCTCCAGCAGCAGCAGCC, in series [1], the remaining target (mRNA or protein) (fraction of control) worked out at 0.94. The sequence GCTCCCATCCTCGTCGCC had a remaining target (mRNA or protein) (fraction of control) in series [1] of no less than 1. For the sequence GCTGTGTCTCTGGGCATC, the remaining target (mRNA or protein) (fraction of control) in series [1] was no less than 1. In series [1], GCTTCCTGTCCATCACTG yielded a remaining target (mRNA or protein) (fraction of control) of 0.71. The sequence GCTTGAAGAAATGTTTTA registered a remaining target (mRNA or protein) (fraction of control) in series [1] of no less than 1. In series [1], GCTTGAGTGCTGGGAACA displayed a remaining target (mRNA or protein) (fraction of control) of no less than 1. In the case of GGAAACTGAGTCAAGCAA, the remaining target (mRNA or protein) (fraction of control) in series [1] is 0.62.

In series [1], GGAGTGCATAAGAGGCCACA returned a remaining target (mRNA or protein) (fraction of control) of 0.56.

With GGATCCTGTTGATCTCCT, the remaining target (mRNA or protein) (fraction of control) in series [1] was no less than 1. GGCAAGGCTTGAGTGCTG: the remaining target (mRNA or protein) (fraction of control) in series [1] turned out to be 0.42. The same measure, in the same setting: with GGCGAAGCTGATGCGGAC the figure was no less than 1; with GGCGGCCTTCTCATCCTC, 0.96. Same read-out and setting: the figure for GGCTCAGAAGGACTTCCTGG is 0.65. In series [1], GGCTGCGGAGCACGTCCT gave a remaining target (mRNA or protein) (fraction of control) of 0.54.

Consider GGCTGCTGAGAATCTGAA, for which the remaining target (mRNA or protein) (fraction of control) in series [1] came out at 0.78. On to GGGAGTTGACGAAGATGG, for which the remaining target (mRNA or protein) (fraction of control) in series [1] came out at 0.96. On the same count and under the same terms, the figure for GGGCCCAAAAGCAGCAGC is 0.89; for GGGGTGGTGGAGTGCATAAG it is 0.9; for GGGTCCGTTCCCTCAACA it is no less than 1. Same read-out and setting: with GGTAGGTCGTAGAAGATG the figure was no less than 1; with GGTGGTGGAGTGCATAAGAG, 0.98; with GTAAGTCCAGGAGATAGC, 0.86. The same measure, in the same setting: with GTAGATGAGGGCGATCAC the figure was no less than 1. Regarding GTCCAGCCACTGCAGTGGCC, the remaining target (mRNA or protein) (fraction of control) in series [1] worked out at 0.82. For the sequence GTCCAGGTAGCGGGCGAG, the remaining target (mRNA or protein) (fraction of control) in series [1] is no less than 1. Same read-out and setting: with GTCCCAGAACCCTGCCCA the figure was no less than 1. As to GTCCCCCGACTCCCTTGC, the remaining target (mRNA or protein) (fraction of control) in series [1] was 0.27. On the same count and under the same terms, the figure for GTCCCTGCACCCCTAGTC is no less than 1; for GTCTTCAGTGTTTTCATT it is no less than 1.

GTGGAGTGCATAAGAGGCCA: the remaining target (mRNA or protein) (fraction of control) in series [1] was 0.84. Still for that read-out and setting: the figure for GTGGTTGCGTGCCGATTCAC is 0.5; for GTGTAGTGGCTGAAAAGG it is no less than 1. On the same count and under the same terms, with GTTCATTCCATTCAGTTG the figure was 0.87. Same read-out and setting: the figure for GTTCCAGGATAGTCCCAA is 0.34. Consider GTTGATCTCGTCCAGGTA, for which the remaining target (mRNA or protein) (fraction of control) in series [1] stood at 0.28.

The sequence TAAGAGGCCACAGCAGGCTC gave a remaining target (mRNA or protein) (fraction of control) in series [1] of 0.42. TAGATGCACTTGGAGCGA: the remaining target (mRNA or protein) (fraction of control) in series [1] was no less than 1. Sequence TATTATCGAGTGACTGGT displayed a remaining target (mRNA or protein) (fraction of control) in series [1] of no less than 1. Consider TCAACTTCTTTTGCCGAA, for which the remaining target (mRNA or protein) (fraction of control) in series [1] turned out to be 0.62. In series [1], TCACAGCAGGTTGATCTC had a remaining target (mRNA or protein) (fraction of control) of no less than 1.

In series [1], TCAGCATCCTGCTTAGGG showed a remaining target (mRNA or protein) (fraction of control) of no less than 1. TCATGGCCCGCATGGACA gave a remaining target (mRNA or protein) (fraction of control) in series [1] of 0.7. In series [1], TCCATTTCTTACGCTCTG gave a remaining target (mRNA or protein) (fraction of control) of no less than 1. In turn, TCCCAGGGTGTGCGTCAC yielded a remaining target (mRNA or protein) (fraction of control) in series [1] of no less than 1.

Take TCCTTGCCTGAAACACCC: the remaining target (mRNA or protein) (fraction of control) in series [1] was no less than 1. On to TCGGCGGTGGCAAGGCTT, for which the remaining target (mRNA or protein) (fraction of control) in series [1] is 0.97. Still for that read-out and setting: the figure for TCTCCTCCAGGCACTGGT is 0.18; for TCTCCTTCATGCGGTTCT it is 0.61. The same measure, in the same setting: the figure for TGAAGATGAATCTCAATCCA is 0.88; for TGATTTCTTCACCTTTTC it is no less than 1; for TGCACCAGTGGCTCGGCT it is no less than 1. On the same count and under the same terms, the figure for TGCATAAGAGGCCACAGCAG is 0.44; for TGCGCTCCTCCTCCGAGT it is no less than 1; for TGCTGTCACTCACGCACTCG it is 0.57.

Sequence TGCTTGTGGGCCGCGATT gave a remaining target (mRNA or protein) (fraction of control) in series [1] of 0.24. TGGAGAGATAGACCAGGA came in with a remaining target (mRNA or protein) (fraction of control) in series [1] of 0.67.

In turn, TGGGGGTGGTGGAGTGCATA registered a remaining target (mRNA or protein) (fraction of control) in series [1] of 0.53. Take TGGTGGAGTGCATAAGAGGC: in series [1], the remaining target (mRNA or protein) (fraction of control) was 0.47. TGTCCTGGTGAGAGGCAG: the remaining target (mRNA or protein) (fraction of control) in series [1] is 0.73. The same measure, in the same setting: with TGTCTGGGTCCACCGTGC the figure was 0.45; with TGTGGGCCGAGGCTGGAG, 0.85. Sequence TGTTAAGACACTGAAGAAAT came in with a remaining target (mRNA or protein) (fraction of control) in series [1] of no less than 1. On the same count and under the same terms, with TTACGCTCTGACTTCTGG the figure was 0.81. Same read-out and setting: the figure for TTATAAGCCAAAGTGCGT is no less than 1. Still for that read-out and setting: the figure for TTATTCATACCGTTGTTG is 0.96. For the sequence TTCAAGTCTTCTTCCAAT, the remaining target (mRNA or protein) (fraction of control) in series [1] came out at 0.85. The same measure, in the same setting: the figure for TTCAATGGCTTCCACGAG is 0.94; for TTCGCCGCACCGACTCGC it is 0.9.

On to TTCTCATCCTCCGTCAGG, for which the remaining target (mRNA or protein) (fraction of control) in series [1] is no less than 1. The same measure, in the same setting: the figure for TTCTCCTCCAGGCACTGG is no less than 1; for TTCTCCTGTCCACTAGAG it is 0.98; for TTCTGGCACTTTCTATGA it is 0.72. In series [1], TTCTGTGTGTCTGTGGCA gave a remaining target (mRNA or protein) (fraction of control) of 0.19. For TTGCCCAACCACTCGTTC, the remaining target (mRNA or protein) (fraction of control) in series [1] came to 0.45.

As for TTGCTCTCGGGCCTGCTG, in series [1], the remaining target (mRNA or protein) (fraction of control) is 0.21. In series [1], TTGGTATCGATAGCACTACA had a remaining target (mRNA or protein) (fraction of control) of 0.96.

In turn, TTTCTATCGTTGAGTTTCTG showed a remaining target (mRNA or protein) (fraction of control) in series [1] of no less than 1. In the case of TTTCTCATTGCCTTCACG, the remaining target (mRNA or protein) (fraction of control) in series [1] was no less than 1.

In the case of TTTCTGCACGGAGAAGCA, in series [1], the remaining target (mRNA or protein) (fraction of control) stood at 0.26.
